Laboratory results as given in the supplement of paper PMC9663587.

What was measured:
[1] = compound: CN(C)CC[C@H](CSc1ccccc1)Nc1ccc(S(=O)(=O)NC(=O)c2ccc(N3CCN(Cc4ccccc4-c4ccc(Cl)cc4)CC3)cc2)cc1[N+](=O)[O-] [ABT-737]
[2] = compound: CN1CCN(CCOc2cc(OC3CCOCC3)c3c(Nc4c(Cl)ccc5c4OCO5)ncnc3c2)CC1 [Saracatinib/AZD0530]
[3] = compound: T1, CN1CC[C@H](c2c(O)cc(O)c3c(=O)cc(-c4ccccc4Cl)oc23)[C@H](O)C1 [Flavopiridol]
[4] = compound: CO[C@@H](C)Cn1c(=O)n(C)c2cnc3ccc(-c4cncc(C(C)(C)O)c4)cc3c21
[5] = compound: Cc1nc(-c2cn3c(n2)-c2ccc(-c4cnn(C(C)(C)C(N)=O)c4)cc2OCC3)n(C(C)C)n1 [Taselisib/GDC0032]
[6] = compound: C=CC(=O)Nc1ccc(C(=O)Nc2[nH]nc3c2CN(C(=O)N[C@H](CN(C)C)c2ccccc2)C3(C)C)cc1 [YKL-5-124]; assay: GR value, 72 h; higher = faster growth (1 = untreated, <0 = killing);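 also: breast cancer and non-malignant breast epithelial lines, nine half-log doses, viable cells counted by Hoechst and LIVE/DEAD dye imaging versus time-zero plates and DMSO controls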
[7] = compound: CC(=O)c1c(C)c2cnc(Nc3ccc(N4CCN(CCOCCOCCOCCNC(=O)COc5cccc6c5C(=O)N(C5CCC(=O)NC5=O)C6=O)CC4)cn3)nc2n(C2CCCC2)c1=O [BSJ-03-123]; assay: as above
[8] = compound: CC(=O)c1c(C)c2cnc(Nc3ccc(N4CCNCC4)cn3)nc2n(C2CCCC2)c1=O; assay: as above
[9] = compound: CCN1CCN(Cc2ccc(Nc3ncc(F)c(-c4cc(F)c5nc(C)n(C(C)C)c5c4)n3)nc2)CC1; assay: as above
[10] = compound: CCOc1cc2ncc(C#N)c(Nc3ccc(OCc4ccccn4)c(Cl)c3)c2cc1NC(=O)/C=C/CN(C)C [Neratinib/HKI272]; assay: as above
[11] = compound: CCc1cnn2c(NCc3ccc[n+]([O-])c3)cc(N3CCCC[C@H]3CCO)nc12; assay: as above
[12] = compound: CN(C)C(=O)c1cc2cnc(Nc3ccc(N4CCNCC4)cn3)nc2n1C1CCCC1 [LEE011/Ribociclib]; assay: as above
[13] = compound: CN(C)C/C=C/C(=O)Nc1ccc(C(=O)N2CCC[C@@H](Nc3ncc(Cl)c(-c4c[nH]c5ccccc45)n3)C2)cc1 [THZ531]; assay: as above
[14] = compound: CN(C)C/C=C/C(=O)Nc1ccc(C(=O)Nc2cccc(Nc3ncc(Cl)c(-c4c[nH]c5ccccc45)n3)c2)cc1 [THZ1]; assay: as above
[15] = compound: T1, Flavopiridol; assay: as above
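For GR50, 72 h in this document: breast cancer and non-malignant breast epithelial cell lines, Deep Dye Drop or Dye Drop imaging, nine half-log doses, GR normalized to time-zero plates and DMSO-only controls.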

With BT474 the “GR50, 72 h” value [1] was 5.21 µM, the “GR50, 72 h” value [2] was 0.896 µM and the “GR50, 72 h” value [3] was 0.208 µM. For the same cell line, the “GR50, 72 h” value [4] was less than 0.001 µM, the “GR50, 72 h” value [5] was 0.00452 µM and the GR value ([6]; 0.001 µM) was 0.506 GR. The GR value ([6]; 0.003162 µM) was 0.225 GR, the GR value ([6]; 0.01 µM) was 0.197 GR and the GR value ([6]; 0.03162 µM) was 0.179 GR. For the same cell line, the GR value ([6]; 0.1 µM) was -0.0193 GR, the GR value ([6]; 0.3162 µM) was -0.106 GR and the GR value ([6]; 1 µM) was -0.16 GR. It also gave a GR value ([6]; 3.162 µM) of -0.0451 GR, a GR value ([6]; 10 µM) of -0.519 GR and a GR value ([7]; 0.001 µM) of 1.01 GR. It also gave a GR value ([7]; 0.003162 µM) of 0.599 GR, a GR value ([7]; 0.01 µM) of 0.685 GR and a GR value ([7]; 0.03162 µM) of 0.727 GR. It also gave a GR value ([7]; 0.1 µM) of 0.515 GR, a GR value ([7]; 0.3162 µM) of 0.523 GR and a GR value ([7]; 1 µM) of 0.364 GR. It also gave a GR value ([7]; 3.162 µM) of 0.386 GR, a GR value ([7]; 10 µM) of 0.0116 GR and a GR value ([8]; 0.0003162 µM) of 1.12 GR. It also gave a GR value ([8]; 0.001 µM) of 1.05 GR, a GR value ([8]; 0.003162 µM) of 1.11 GR and a GR value ([8]; 0.01 µM) of 0.918 GR. For the same cell line, the GR value ([8]; 0.03162 µM) was 0.735 GR, the GR value ([8]; 0.1 µM) was 0.668 GR and the GR value ([8]; 0.3162 µM) was 0.619 GR. The GR value ([8]; 1 µM) was 0.611 GR, the GR value ([8]; 3.162 µM) was 0.544 GR and the GR value ([9]; 0.001 µM) was 1.01 GR. For the same cell line, the GR value ([9]; 0.003162 µM) was 0.837 GR, the GR value ([9]; 0.01 µM) was 0.806 GR and the GR value ([9]; 0.03162 µM) was 0.594 GR. The GR value ([9]; 0.1 µM) was 0.62 GR, the GR value ([9]; 0.3162 µM) was 0.536 GR and the GR value ([9]; 1 µM) was 0.577 GR. For the same cell line, the GR value ([9]; 3.162 µM) was 0.696 GR, the GR value ([9]; 10 µM) was 0.274 GR and the GR value ([10]; 0.0003162 µM) was 0.989 GR. It also gave a GR value ([10]; 0.001 µM) of 0.784 GR, a GR value ([10]; 0.003162 µM) of -0.125 GR and a GR value ([10]; 0.01 µM) of -0.734 GR. The GR value ([10]; 0.03162 µM) was -0.825 GR, the GR value ([10]; 0.1 µM) was -0.86 GR and the GR value ([10]; 0.3162 µM) was -0.874 GR. It also gave a GR value ([10]; 1 µM) of -0.895 GR, a GR value ([10]; 3.162 µM) of -0.922 GR and a GR value ([11]; 0.0001 µM) of 1.02 GR. The GR value ([11]; 0.0003162 µM) was 0.963 GR, the GR value ([11]; 0.001 µM) was 1.17 GR and the GR value ([11]; 0.003162 µM) was 1.12 GR. The GR value ([11]; 0.01 µM) was 0.918 GR, the GR value ([11]; 0.03162 µM) was -0.569 GR and the GR value ([11]; 0.1 µM) was -0.753 GR. It also gave a GR value ([11]; 0.3162 µM) of -0.769 GR, a GR value ([11]; 1 µM) of -0.75 GR and a GR value ([12]; 0.001 µM) of 0.773 GR. It also gave a GR value ([12]; 0.003162 µM) of 0.676 GR, a GR value ([12]; 0.01 µM) of 0.849 GR and a GR value ([12]; 0.03162 µM) of 0.637 GR. It also gave a GR value ([12]; 0.1 µM) of 0.674 GR, a GR value ([12]; 0.3162 µM) of 0.447 GR and a GR value ([12]; 1 µM) of 0.532 GR. For the same cell line, the GR value ([12]; 3.162 µM) was 0.6 GR, the GR value ([12]; 10 µM) was 0.711 GR and the GR value ([13]; 0.0001 µM) was 1.09 GR. The GR value ([13]; 0.0003162 µM) was 0.953 GR, the GR value ([13]; 0.001 µM) was 0.521 GR and the GR value ([13]; 0.003162 µM) was 0.917 GR. The GR value ([13]; 0.01 µM) was 1.1 GR, the GR value ([13]; 0.03162 µM) was 0.881 GR and the GR value ([13]; 0.1 µM) was -0.388 GR. It also gave a GR value ([13]; 0.3162 µM) of -0.861 GR, a GR value ([13]; 1 µM) of -0.675 GR and a GR value ([14]; 0.0001 µM) of 1 GR. It also gave a GR value ([14]; 0.0003162 µM) of 0.971 GR, a GR value ([14]; 0.001 µM) of 0.687 GR and a GR value ([14]; 0.003162 µM) of 0.659 GR. It also gave a GR value ([14]; 0.01 µM) of 0.571 GR, a GR value ([14]; 0.03162 µM) of 0.441 GR and a GR value ([14]; 0.1 µM) of -0.627 GR. It also gave a GR value ([14]; 0.3162 µM) of -0.683 GR, a GR value ([14]; 1 µM) of -0.617 GR and a GR value ([15]; 0.0001 µM) of 1.17 GR. It also gave a GR value ([15]; 0.0003162 µM) of 0.998 GR, a GR value ([15]; 0.001 µM) of 0.895 GR and a GR value ([15]; 0.003162 µM) of 0.878 GR. It also gave a GR value ([15]; 0.01 µM) of 0.801 GR, a GR value ([15]; 0.03162 µM) of 0.959 GR and a GR value ([15]; 0.1 µM) of 0.935 GR. For the same cell line, the GR value ([15]; 0.3162 µM) was 0.154 GR and the GR value ([15]; 1 µM) was -0.753 GR.
